According to PMC6556873, “Rapid Covalent-Probe Discovery by Electrophile-Fragment Screening” (Journal of the American Chemical Society, 2019):
Read-outs that look alike come from different tables or passages of the source.

Experiments:
in vitro [1] = test: in vitro; set-up: species or system CCD841, HEK293; details: human, hb2 cells, read-out: HB-2 Cells Viability (%)
in vitro [2] = test: in vitro; set-up: species or system HB2, HEK293; details: human, ccd841 cells
NUDT7 = target: T1, NUDT7 (Homo sapiens, UniProt P0C024); set-up: Intact protein LC/MS covalent labelling, fragments in pools of five, 200 uM each, 4 °C; details: 24 h, 4 °C, pool of five; 200 µM; covalent
T1 construct: residues 14-235, E. coli, pNIC28-Bsa4, N-terminal His6 tag removed by TEV, construct 26672 Da
T1 sequence (P0C024 14-235): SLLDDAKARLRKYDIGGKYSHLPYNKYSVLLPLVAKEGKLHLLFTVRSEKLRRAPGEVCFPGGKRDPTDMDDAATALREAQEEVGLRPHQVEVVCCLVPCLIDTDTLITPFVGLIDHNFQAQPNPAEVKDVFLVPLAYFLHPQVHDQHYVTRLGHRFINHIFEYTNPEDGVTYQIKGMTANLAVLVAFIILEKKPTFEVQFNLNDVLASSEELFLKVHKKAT

OTUB2 (OTUB2A) = target: T2, OTUB2 (OTUB2A) (Homo sapiens, UniProt Q96DC9); set-up: Intact protein LC/MS covalent labelling, fragments in pools of five, 200 uM each, 4 °C; details: 24 h, 4 °C, pool of five; 200 µM; covalent
T2 construct: full length residues 1-234, E. coli BL21(DE3)-R3, His tag removed by TEV, construct 27312 Da
T2 sequence (Q96DC9 1-234): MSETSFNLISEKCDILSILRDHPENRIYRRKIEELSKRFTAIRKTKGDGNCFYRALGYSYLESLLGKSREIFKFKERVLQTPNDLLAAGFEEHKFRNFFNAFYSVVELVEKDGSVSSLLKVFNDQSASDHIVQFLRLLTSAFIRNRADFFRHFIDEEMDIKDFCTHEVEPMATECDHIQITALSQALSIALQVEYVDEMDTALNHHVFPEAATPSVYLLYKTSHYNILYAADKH

BSA = target: T3, BSA (Bos taurus, UniProt P02769); set-up: Intact protein LC/MS covalent labelling, fragments in pools of five, 200 uM each, 4 °C; details: 24 h, 4 °C, pool of five; 200 µM; covalent
T3 construct: gene ALB
T3 sequence (P02769 whole entry, the tested form may be a part): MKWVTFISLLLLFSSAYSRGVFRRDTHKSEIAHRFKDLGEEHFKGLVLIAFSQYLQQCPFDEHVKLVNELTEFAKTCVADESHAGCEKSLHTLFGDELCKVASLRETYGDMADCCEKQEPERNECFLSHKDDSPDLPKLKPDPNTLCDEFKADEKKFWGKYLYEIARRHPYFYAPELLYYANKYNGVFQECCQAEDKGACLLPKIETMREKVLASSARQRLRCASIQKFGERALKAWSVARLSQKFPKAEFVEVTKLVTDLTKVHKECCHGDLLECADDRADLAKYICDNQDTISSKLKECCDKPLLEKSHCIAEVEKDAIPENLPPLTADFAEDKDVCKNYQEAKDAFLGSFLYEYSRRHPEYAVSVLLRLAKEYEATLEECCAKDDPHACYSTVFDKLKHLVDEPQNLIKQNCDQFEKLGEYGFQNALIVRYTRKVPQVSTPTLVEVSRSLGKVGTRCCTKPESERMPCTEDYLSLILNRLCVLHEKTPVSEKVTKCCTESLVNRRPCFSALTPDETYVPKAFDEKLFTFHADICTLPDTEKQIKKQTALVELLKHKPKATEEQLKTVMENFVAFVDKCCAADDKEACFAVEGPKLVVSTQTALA

PCAF = target: T4, PCAF (Homo sapiens, UniProt Q92831); set-up: Intact protein LC/MS covalent labelling, fragments in pools of five, 200 uM each, 4 °C; details: 24 h, 4 °C, pool of five; 200 µM; covalent
T4 construct: gene KAT2B
T4 sequence (Q92831 whole entry, the tested form may be a part): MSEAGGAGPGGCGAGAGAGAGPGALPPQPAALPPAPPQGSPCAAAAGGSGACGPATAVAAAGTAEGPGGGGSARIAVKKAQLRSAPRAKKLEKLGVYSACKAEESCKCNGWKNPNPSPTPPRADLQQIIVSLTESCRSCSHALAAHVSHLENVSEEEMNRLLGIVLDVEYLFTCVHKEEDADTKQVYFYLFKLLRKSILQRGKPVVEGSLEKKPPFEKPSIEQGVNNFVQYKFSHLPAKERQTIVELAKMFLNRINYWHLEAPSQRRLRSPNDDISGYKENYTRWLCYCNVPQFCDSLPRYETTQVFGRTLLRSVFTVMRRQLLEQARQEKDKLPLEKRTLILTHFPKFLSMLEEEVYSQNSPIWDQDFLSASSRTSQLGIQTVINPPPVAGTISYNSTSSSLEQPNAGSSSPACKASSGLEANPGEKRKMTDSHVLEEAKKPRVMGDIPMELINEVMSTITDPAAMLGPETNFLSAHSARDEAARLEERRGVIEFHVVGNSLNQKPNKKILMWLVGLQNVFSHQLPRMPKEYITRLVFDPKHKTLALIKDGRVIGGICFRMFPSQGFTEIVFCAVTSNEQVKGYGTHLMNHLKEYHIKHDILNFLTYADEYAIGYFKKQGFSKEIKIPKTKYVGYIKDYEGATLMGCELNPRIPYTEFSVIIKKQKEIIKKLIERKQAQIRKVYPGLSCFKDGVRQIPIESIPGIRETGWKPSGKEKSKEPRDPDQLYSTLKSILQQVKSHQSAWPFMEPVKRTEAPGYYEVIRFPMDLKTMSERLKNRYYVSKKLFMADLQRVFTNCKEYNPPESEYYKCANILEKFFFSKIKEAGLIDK

in vitro [3] = test: in vitro; set-up: species or system HB2, CCD841; details: human, hek293 cells

NUDT7 (NUDT7)	OTUB2 (OTUB2 (OTUB2A))	BSA (BSA)	PCAF (PCAF)	SMILES	viability at 48 h, 10 µM (in vitro [1])	viability at 48 h, 10 µM (in vitro [2])	viability at 48 h, 10 µM (in vitro [3])
0	0	0	0	C=CC(=O)NC1CCCN(c2cnn(C)c2)C1 (stereo not shown) [PCM-0102480]	99.5%	96.4%	91.8%
0	0	0	0	C=CC(=O)NCC1CC12CCOCC2 (stereo not shown) [PCM-0102481]	97%	110%	103%
0	0	0	0	C=CC(=O)NCc1ccon1 [PCM-0102482]	98.9%	92.9%	90.3%
0	0	0.12	0	C=CC(=O)N1CCCc2[nH]c3ccc(F)cc3c2C1 [PCM-0102485]	95.2%	106%	105%
0	0	0	0	C=CC(=O)NC1CCc2cnn(C(C)C)c2C1 (stereo not shown) [PCM-0102487]	95.5%	120%	97.7%
0	0	0	0	C=CC(=O)N1CCCN(S(=O)(=O)c2cccc3cnccc23)CC1 [PCM-0102491]	99.3%	100%	99.9%
0	0	0	0	C=CC(=O)Nc1ccccc1OC [PCM-0102493]	98.2%	105%	74.7%
0	0	0	0	O=C(CCl)NC(=O)NCc1ccco1 [PCM-0102494]	75.2%	85.4%	86.6%
0	0	0	0	NC(=O)C1CCCN(C(=O)CCl)C1 (stereo not shown) [PCM-0102495]	92.7%	93%	81.7%
0	0.05	0	0	Cl.O=C(CCl)NCc1cccnc1 [PCM-0102497]	106%	90.2%	107%
0	0	0	0	CC12CCC(CC1=NNC(=O)CCl)C2(C)C (stereo not shown) [PCM-0102498]	25.9%	14.6%	2.2%
0.1	0	0	0	C=CC(=O)Nc1ccc2c(c1)NC(=O)CO2 [PCM-0102499]	104%	108%	71.7%
0	0.35	0	0	Cc1cc(NC(=O)CCl)no1 [PCM-0102500]	66.8%	73.3%	60.3%
0.09	0.09	0	0	Cc1nn(-c2ccccc2)c(C)c1NC(=O)CCl [PCM-0102501]	83.2%	68.3%	62.2%
0	0	0	0	CC(C)CNC(=O)NC(=O)CCl [PCM-0102502]	78%	80.7%	52.7%
0	0	0	0	C=CC(=O)N1CCn2c(cc3ccc(Cl)cc32)C1 [PCM-0102503]	98.2%	102%	74.4%
0	0	0	0	CC(C)NC(=O)NC(=O)CCl [PCM-0102504]	92%	81.5%	66.9%
0.59	0.07	0	0	O=C(CCl)Nc1ccc(Br)cc1Cl [PCM-0102505]	41.7%	74.6%	31.6%
0	0	0.1	0	O=C(CCl)Nc1ccccc1I [PCM-0102509]	95.5%	91.1%	99.4%
0	0.52	0	0	O=C(CCl)NNC(=O)c1ccccc1F [PCM-0102510]	98%	72.7%	93.1%
0	0	0	0	C=CC(=O)N1CCN(c2ccnc(-c3ccccc3)n2)CC1 [PCM-0102515]	88.8%	105%	73%
0	0	0	0	CC(C)N(CC(F)(F)F)C(=O)CCl [PCM-0102516]	103%	109%	106%
0	0	0	0	CNC(=O)C1CCCN1C(=O)CCl (stereo not shown) [PCM-0102518]	101%	93.3%	67.8%
0	0	0	0	C=CC(=O)N1CCCN(C(=O)C2CCCO2)CC1 (stereo not shown) [PCM-0102519]	98.2%	108%	95.5%
0	0	0	0	C=CC(=O)N1CCC2(CC1)NC(=O)C1(CCCCC1)N2 [PCM-0102520]	101%	106%	107%
0	0	0	0	C=CC(=O)N1CCCC(NS(C)(=O)=O)C1 (stereo not shown) [PCM-0102522]	106%	112%	106%
0	0	0	0	C=CC(=O)NCC1CCOC2(CCC2)C1 (stereo not shown) [PCM-0102523]	102%	117%	90.4%
0	0	0	0	C=CC(=O)N1CCC(C(=O)c2ccc3c(c2)NC(=O)C(C)O3)CC1 (stereo not shown) [PCM-0102524]	103%	99.7%	80.6%
